Data published in patent US20070155687A1, “Methods and compositions for altering cell function” (Alltech, Inc., priority 2005, published 2007).

Columns and labels:
[1] = tested on: Complement component 1, q subcomponent, alpha polypeptide, C1qa; test: Cerebral cortex gene expression: C1qa; type: in vivo; conditions: mouse cerebral cortex; diet 1 ppm Se, 100 days; vs selenium deficient; * = significant, p<0.01
Excerpt: (§1) Animal Care. Male C57BL/6J mice were housed singly and started on the experimental diets described below immediately after weaning (21 days of age). The mice were maintained in the Shared Aging Rodent Facility at the William S. Middleton Memorial Veterans Administration Medical Center (Madison, Wis.). Temperature and humidity were maintained at constant levels. Room light was controlled to provide 12-hr cycles of light and dark.
(§2) Experimental diets were created by Harlan Teklad (Madison, Wis.). Selenium content of the diets was determined by Covance Inc. (Madison, Wis.). Five (5) animals were included in each of the following treatment groups: a diet deficient in selenium (SD); a diet supplemented with selenomethionine (SM, obtained from Sigma, St. Louis, Mo.) such that the final selenium content of the diet was one (1) part per million; a diet supplemented with sodium selenite (SS, Sigma) such that the final concentration of selenium in this diet was one (1) part per million; or a diet supplemented with the yeast selenium SEL-PLEX (SP, Alltech, Lexington, Ky), such that the final concentration of selenium in this diet was one (1) part per million. SEL-PLEX. […]
(§3) Tissue sample preparation and microarray analysis. […] For intestinal expression studies, the intestine was flushed twice with saline solution and small intestine was measured and divided in three equal segments. […]

[2] = tested on: Amyloid beta (A4) precursor protein-binding, family A, member 1(Apba1); test: Cerebral cortex gene expression: Apba1; type: in vivo; conditions: mouse cerebral cortex; diet 1 ppm Se, 100 days; * significant relative to Se-deficient animals, P < 0.01
Excerpt: as §1, §2, §3

[3] = tested on: Thioredoxin Reductase 1 (Trx-1); test: Intestinal gene expression: Thioredoxin Reductase 1; type: in vivo; conditions: mouse intestine; diet 1 ppm Se, 100 days; vs selenium deficient; all p < 0.01
Excerpt: as §1, §2, §3

[4] = tested on: sprouty homolog 2 gene (Spry2); test: Intestinal gene expression: Spry2; type: in vivo; conditions: mouse intestine; diet 1 ppm Se, 100 days; relative to Se-deficient controls
Excerpt: as §1, §2, §3

[5] = tested on: type II iodothyronine deiodinase, (Dio2); test: Intestinal gene expression: Dio2; type: in vivo; conditions: mouse intestine; diet 1 ppm Se, 100 days; vs selenium deficient
Excerpt: as §1, §2, §3

Glutathione Peroxidase 1 = test: Intestinal gene expression (microarray): Glutathione Peroxidase 1; type: in vivo; conditions: mouse intestine; diet 1 ppm Se, 100 days; vs selenium deficient; all p < 0.01
Excerpt: as §1, §2, §3

Neurogenin 3 (Neurog3) = test: Intestinal gene expression: Neurog3; type: in vivo; conditions: mouse intestine; diet 1 ppm Se, 100 days; vs selenium deficient
Excerpt: as §1, §2, §3

[6] = tested on: Complement component 1, q subcomponent binding protein, C1qbp; test: Cerebral cortex gene expression: C1qbp; type: in vivo; conditions: mouse cerebral cortex; diet 1 ppm Se, 100 days; vs selenium deficient; * = significant, p<0.01
Excerpt: as §1, §2, §3

Selenoprotein W (SelW) = test: Intestinal gene expression: Selenoprotein W; type: in vivo; conditions: mouse intestine; diet 1 ppm Se, 100 days; vs selenium deficient
Excerpt: as §1, §2, §3

calpain-5 = test: Expression level of calpain genes after selenium administration; type: in vivo; conditions: signed change (+ up, − down); tissue not stated; * not explained
Experimental: Compositions and methods of the present invention were analyzed to determine if they were capable of altering the expression levels of calpain genes. Compositions comprising various forms of selenium (e.g., SeM, Sod-sel, and SEL-PLEX) were administered to subjects and the expression levels of calpain genes monitored. The expression level of calpain-5 was altered by treatment in the following ways: free selenomethionine (SM)+1.32*, Sod-sel−1.07, SEL-PLEX−1.44*.

[7] = tested on: Complement component 1, r subcomponent, C1r; test: Cerebral cortex gene expression: C1r; type: in vivo; conditions: mouse cerebral cortex; diet 1 ppm Se, 100 days; vs selenium deficient; * = significant, p<0.01
Excerpt: as §1, §2, §3

[8] = tested on: Glutathione S-transferase, alpha 3 (Gsta3); test: Intestinal gene expression: Gsta3; type: in vivo; conditions: mouse intestine; diet 1 ppm Se, 100 days; vs Se-deficient diets; negative = down; NS = not significant
Excerpt: as §1, §2, §3

[9] = Body weight of mice on selenium diets; type: in vivo, mouse; conditions: diet 1 ppm Se, 100 days; compared across diets incl. selenium deficient diet (FIG. 1)
Excerpt: as §1
Experimental diets were created by Harlan Teklad (Madison, Wis.). Selenium content of the diets was determined by Covance Inc. (Madison, Wis.). […]
Thus, it was an object of the present invention to determine whether compositions and methods of the present invention could alter the expression levels (e.g., niRNA levels) of various genes. One group of genes analyzed were genes classically associated with selenium. As described above, the expression levels of genes were analyzed between mice with and without dietary selenium, or, between mice fed different sources of selenium) (See, e.g., Table 1, below).

SOD1 = test: Intestinal gene expression: SOD1; type: in vivo; conditions: mouse intestine; diet 1 ppm Se, 100 days; vs selenium deficient
Excerpt: as §1, §2, §3

[10] = tested on: Glutathione S-transferase, mu1 (Gstm1); test: Intestinal gene expression: Gstm1; type: in vivo; conditions: mouse intestine; diet 1 ppm Se, 100 days; vs Se-deficient diets; negative = down; NS = not significant
Excerpt: as §1, §2, §3

Row | SMILES | FC C1qa expression [1] [fold] | FC Apba1 expression [2] [fold] | fold increase in expression of the Thioredoxin Reductase 1 gene [3] [fold] | Spry2 gene expression, reduction [4] | Dio2 expression, down-regulation [5] | fold change (FC) in Glutathione Peroxidase 1 gene expression (Glutathione Peroxidase 1) [fold] | Neurog3 expression, upregulated (Neurogenin 3 (Neurog3)) | FC C1qbp expression [6] [fold] | Selenoprotein W (SelW) expression, upregulated (Selenoprotein W (SelW)) | expression level of calpain-5 altered by treatment (calpain-5) | FC C1r expression [7] [fold] | FC Gsta3 expression [8] [fold] | body weights of mice [9] | enhanced expression of SOD1 (SOD1) [fold] | FC Gstm1 expression [10] [fold]
1 | C[Se]CC[C@H](N)C(=O)O [SeM, selenomethionine] | −1.11 | 1.08 | 1.8 | no alteration | no ability to alter the expression levels | 4.9 | no significant alteration | 1.12 | not significantly altered | +1.32 | 1.04 | – | – | – | –
2 | O=[Se](O)O [Sod-sel, sodium selenite] | −1.18 | −1.41 | – | – | – | 4.1 | – | 1.11 | 5.1 fold | – | −1.29 | −2.3 | No significant differences | 1.92 | −2.4
